Data taken from PMC11975176 (Clinical Pharmacology in Drug Development, 2025).
Like-named read-outs stand apart in the source and are kept apart here.

Key:
[1] = cited from earlier work
[2] = NA (ETV, TFV) plasma PK (NCA) with coadministered bepirovirsen in the Phase 2b B-Clear study; type: in vivo; settings: human, oral; for concentration at 24 h: B-Clear, mean ± SD, read-out: Ctau; for AUC(0-t): read-out: AUC0-24
Procedure: NA plasma PK parameters were calculated using NCA methods with Phoenix WinNonlin Version 8.1.0.3530. PK parameters included Cmax, AUC from time zero to 24 hours after dosing, and plasma concentration at the end of the dosing interval. Calculations were based on the actual sampling times. PK samples in the B‐Clear study were assayed for bepirovirsen, ETV, and TFV in plasma at the bioanalytical facility Labcorp Drug Development, Shanghai, China, using validated liquid–liquid extraction for bepirovirsen, solid‐phase extraction for ETV, and protein precipitation for TFV assays followed by high‐performance liquid chromatography with mass spectrometric detection. All plasma samples were assayed within the established long‐term frozen, freeze/thaw, and processed extract stability.

Row | Structure (SMILES) | Cmax ([1]; in vivo, 0.5 mg) [ng/mL] | tmax ([1]; in vivo) | Cmax ([2]; 0.5 mg) [ng/mL] | concentration at 24 h ([2]; 0.5 mg, ETV 0.5 mg once daily with bepirovirsen) [ng/mL] | AUC(0-t) ([2]; 0.5 mg) [ng·h/mL] | tmax ([1]; after dosing) | AUC0-24 ([1]; in vivo, 25 mg) | Cmax ([1]; in vivo, 25 mg) | AUC0-24 ([1]; in vivo, 300 mg) [ng·h/mL] | Cmax ([2]; 25 mg) [ng/mL] | AUC(0-t) ([2]; 25 mg) [ng·h/mL] | Cmax ([2]; 300 mg) [ng/mL] | AUC(0-t) ([2]; 300 mg) [ng·h/mL] | concentration at 24 h ([2]; TFV administered as TAF 25 mg once daily with bepirovirsen) [ng/mL] | concentration at 24 h ([2]; TFV administered as TDF 245 or 300 mg once daily with bepirovirsen) [ng/mL]
1 | C=C1[C@H](CO)[C@@H](O)C[C@@H]1n1cnc2c(=O)[nH]c(N)nc21 [ETV, entecavir] | 4.2 | approximately 1 hour | 6.5 ± 2.3 | 0.5 ± 0.1 | 24.4 ± 6.8 | – | – | – | – | – | – | – | – | – | –
2 | C[C@H](Cn1cnc2c(N)ncnc21)OCP(=O)(O)O [TFV, tenofovir] | – | – | – | – | – | approximately 1 hour | 400 (35.2) ng•h/mL | 30.0 (24.6) ng/mL | 2290 ± 690 | 19.4 ± 5.9 | 308 ± 105 | 319 ± 95.9 | 2750 ± 661 | 10.3 ± 3.5 | 57 ± 17.1
